Laboratory results published in patent US9695155B2, “Herbicidal substituted pyrimidinyloxy benzene compounds” (E. I. DU PONT DE NEMOURS AND COMPANY, priority 2013, dated 2017).

Legend:
giant foxtail [1] = experiment: Test A preemergence; assay type: in vivo, Setaria faberii
Method in brief: (§1)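 Injury scores run from 0, no effect, to 100, complete control, judged by eye against untreated plants roughly 10 days after treatment. Chemicals carried a surfactant in a non-phytotoxic solvent and went onto loam–sand soil preemergence or onto one- to two-leaf seedlings postemergence.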

large (Lg) crabgrass [2] = experiment: Test A postemergence; assay type: in vivo, Digitaria sanguinalis
Description: (§2) Seeds of plant species selected from barnyardgrass (Echinochloa crus-galli), kochia (Kochia scoparia), ragweed (common ragweed, Ambrosia elatior), Italian ryegrass (Lolium multiflorum), large (Lg) crabgrass (Digitaria sanguinalis), giant foxtail (Setaria faberii), morningglory (Ipomoea spp.), pigweed (Amaranthus retroflexus), velvetleaf (Abutilon theophrasti), wheat (Triticum aestivum), and corn (Zea mays) were planted into a blend of loam soil and sand and treated preemergence with a directed soil spray using test chemicals formulated in a non-phytotoxic solvent mixture which included a surfactant.
(§3) At the same time, plants selected from these crop and weed species and also blackgrass (Alopecurus myosuroides), and galium (catchweed bedstraw, Galium aparine) were planted in pots containing the same blend of loam soil and sand and treated with postemergence applications of test chemicals formulated in the same manner. Plants ranged in height from 2 to 10 cm and were in the one- to two-leaf stage for the postemergence treatment. Treated plants and untreated controls were maintained in a greenhouse for approximately 10 days, after which time all treated plants were compared to untreated controls and visually evaluated for injury. Plant response ratings, summarized in Table A, are based on a 0 to 100 scale where 0 is no effect and 100 is complete control. A dash (-) response means no test result.

corn [3] = experiment: Test A preemergence; assay type: in vivo, Zea mays
Description: as §2, §3

barnyardgrass [4] = experiment: Test A preemergence; assay type: in vivo, Echinochloa crus-galli
Method in brief: as §1

rice = experiment: Test B flooded paddy test; assay type: in vivo, Oryza sativa; conditions: Flood, 250 g ai/ha; 0 to 100 scale where 0 is no effect and 100 is complete control
Method: (§4) Plant species in the flooded paddy test selected from rice (Oryza sativa), sedge, umbrella (small-flower umbrella sedge, Cyperus difformis), (Heteranthera limosa), and barnyardgrass (Echinochloa crus-galli) were grown to the 2-leaf stage for testing. At time of treatment, test pots were flooded to 3 cm above the soil surface, treated by application of test compounds directly to the paddy water, and then maintained at that water depth for the duration of the test. Treated plants and controls were maintained in a greenhouse for 13 to 15 days, after which time all species were compared to controls and visually evaluated. Plant response ratings, summarized in Table B, are based on a scale of 0 to 100 where 0 is no effect and 100 is complete control. A dash (-) response means no test result.

morningglory [5] = experiment: Test A postemergence; assay type: in vivo, Ipomoea spp.
Description: as §2, §3

velvetleaf [6] = experiment: Test A postemergence; assay type: in vivo, Abutilon theophrasti
Method in brief: as §1

wheat [7] = experiment: Test A preemergence; assay type: in vivo, Triticum aestivum
Method in brief: as §1

pigweed [8] = experiment: Test A postemergence; assay type: in vivo, Amaranthus retroflexus
Method in brief: as §1

barnyardgrass [9] = experiment: Test A postemergence; assay type: in vivo, Echinochloa crus-galli
Description: as §2, §3

velvetleaf [10] = experiment: Test A preemergence; assay type: in vivo, Abutilon theophrasti
Description: as §2, §3

pigweed [11] = experiment: Test A preemergence; assay type: in vivo, Amaranthus retroflexus
Description: as §2, §3

large (Lg) crabgrass [12] = experiment: Test A preemergence; assay type: in vivo, Digitaria sanguinalis
Method in brief: as §1

corn [13] = experiment: Test A postemergence; assay type: in vivo, Zea mays
Method in brief: as §1

morningglory [14] = experiment: Test A preemergence; assay type: in vivo, Ipomoea spp.
Description: as §2, §3

Heteranthera limosa = experiment: Test B flooded paddy test; assay type: in vivo; conditions: Flood, 250 g ai/ha; 0 to 100 scale where 0 is no effect and 100 is complete control
Method: as §4

sedge, umbrella = experiment: Test B flooded paddy test; assay type: in vivo, Cyperus difformis; conditions: Flood, 250 g ai/ha; 0 to 100 scale where 0 is no effect and 100 is complete control
Method: as §4

wheat [15] = experiment: Test A postemergence; assay type: in vivo, Triticum aestivum
Method in brief: as §1

giant foxtail [16] = experiment: Test A postemergence; assay type: in vivo, Setaria faberii
Method in brief: as §1

barnyardgrass [17] = experiment: Test B flooded paddy test; assay type: in vivo, Echinochloa crus-galli; conditions: Flood, 250 g ai/ha; 0 to 100 scale where 0 is no effect and 100 is complete control
Method: as §4

[18] = 125 g ai/ha, 0 to 100 scale where 0 is no effect and 100 is complete control
[19] = 500 g ai/ha, 0 to 100 scale, 0 no effect, 100 complete control, approx. 10 days
[20] = 500 g ai/ha, 0 to 100 scale, 0 no effect, 100 complete control

Compound | Foxtail, Giant plant response rating (giant foxtail [1]; [19]) | Plant response rating, Crabgrass, Large (large (Lg) crabgrass [2]; [18]) | Plant response rating, Crabgrass, Large (large (Lg) crabgrass [2]; [20]) | Corn plant response rating (corn [3]; [19]) | Barnyardgrass plant response rating (barnyardgrass [4]; [19]) | Plant response rating, Rice (rice) | Plant response rating, Morningglory (morningglory [5]; [18]) | Plant response rating, Morningglory (morningglory [5]; [20]) | Plant response rating, Velvetleaf (velvetleaf [6]; [18]) | Plant response rating, Velvetleaf (velvetleaf [6]; [20]) | Wheat plant response rating (wheat [7]; [19]) | Plant response rating, Pigweed (pigweed [8]; [18]) | Plant response rating, Pigweed (pigweed [8]; [20]) | Plant response rating, Barnyardgrass (barnyardgrass [9]; [18]) | Plant response rating, Barnyardgrass (barnyardgrass [9]; [20]) | Velvetleaf plant response rating (velvetleaf [10]; [19]) | Pigweed plant response rating (pigweed [11]; [19]) | Crabgrass, Large plant response rating (large (Lg) crabgrass [12]; [19]) | Plant response rating, Corn (corn [13]; [18]) | Plant response rating, Corn (corn [13]; [20]) | also measured
FC(F)(F)c1cnc(Oc2ccccc2-n2ccc(C(F)(F)F)n2)nc1 [Compound 4] | 0 | 0 | 0 | 0 | 0 | 0 | 0 | 0 | 0 | 0 | 0 | 0 | 20 | 0 | 0 | 0 | 0 | 0 | 0 | 0 | Foxtail, Giant plant response rating (giant foxtail [1]; [18]): 0; Corn plant response rating (corn [3]; [18]): 0; Barnyardgrass plant response rating (barnyardgrass [4]; [18]): 0; Wheat plant response rating (wheat [7]; [18]): 0; Velvetleaf plant response rating (velvetleaf [10]; [18]): 0; Pigweed plant response rating (pigweed [11]; [18]): 0; Crabgrass, Large plant response rating (large (Lg) crabgrass [12]; [18]): 0; Morningglory plant response rating (morningglory [14]; [18]): 0; Morningglory plant response rating (morningglory [14]; [19]): 0; Plant response rating, Ducksalad (Heteranthera limosa): 0; Plant response rating, Sedge, Umbrella (sedge, umbrella): 0; Plant response rating, Wheat (wheat [15]; [18]): 0; Plant response rating, Wheat (wheat [15]; [20]): 0; Plant response rating, Foxtail, Giant (giant foxtail [16]; [18]): 0; Plant response rating, Foxtail, Giant (giant foxtail [16]; [20]): 0; Plant response rating, Barnyardgrass (barnyardgrass [17]): 0
Cc1cnc(Oc2ccccc2-n2cc(Br)cn2)nc1 [Compound 9] | 90 | 30 | 80 | 20 | 100 | 0 | 20 | 30 | 100 | 100 | 0 | 80 | 90 | 30 | 90 | 100 | 100 | 100 | 20 | 50 | Foxtail, Giant plant response rating (giant foxtail [1]; [18]): 80; Corn plant response rating (corn [3]; [18]): 0; Barnyardgrass plant response rating (barnyardgrass [4]; [18]): 30; Wheat plant response rating (wheat [7]; [18]): 0; Velvetleaf plant response rating (velvetleaf [10]; [18]): 80; Pigweed plant response rating (pigweed [11]; [18]): 100; Crabgrass, Large plant response rating (large (Lg) crabgrass [12]; [18]): 90; Morningglory plant response rating (morningglory [14]; [18]): 0; Morningglory plant response rating (morningglory [14]; [19]): 0; Plant response rating, Ducksalad (Heteranthera limosa): 80; Plant response rating, Sedge, Umbrella (sedge, umbrella): 60; Plant response rating, Wheat (wheat [15]; [18]): 0; Plant response rating, Wheat (wheat [15]; [20]): 30; Plant response rating, Foxtail, Giant (giant foxtail [16]; [18]): 30; Plant response rating, Foxtail, Giant (giant foxtail [16]; [20]): 90; Plant response rating, Barnyardgrass (barnyardgrass [17]): 0
Cc1cnc(Oc2ccccc2-n2cc(Cl)cn2)nc1 [Compound 15] | 100 | 10 | 60 | 0 | 100 | 20 | 10 | 20 | 90 | 100 | 0 | 70 | 100 | 0 | 60 | 100 | 100 | 100 | 0 | 20 | Foxtail, Giant plant response rating (giant foxtail [1]; [18]): 30; Corn plant response rating (corn [3]; [18]): 0; Barnyardgrass plant response rating (barnyardgrass [4]; [18]): 20; Wheat plant response rating (wheat [7]; [18]): 0; Velvetleaf plant response rating (velvetleaf [10]; [18]): 60; Pigweed plant response rating (pigweed [11]; [18]): 90; Crabgrass, Large plant response rating (large (Lg) crabgrass [12]; [18]): 40; Morningglory plant response rating (morningglory [14]; [18]): 0; Morningglory plant response rating (morningglory [14]; [19]): 0; Plant response rating, Ducksalad (Heteranthera limosa): 75; Plant response rating, Sedge, Umbrella (sedge, umbrella): 85; Plant response rating, Wheat (wheat [15]; [18]): 0; Plant response rating, Wheat (wheat [15]; [20]): 10; Plant response rating, Foxtail, Giant (giant foxtail [16]; [18]): 10; Plant response rating, Foxtail, Giant (giant foxtail [16]; [20]): 70; Plant response rating, Barnyardgrass (barnyardgrass [17]): 20
Brc1cnc(Oc2ccccc2-n2ccc(Br)n2)nc1 [Compound 20] | 80 | 0 | 30 | 0 | 20 | 45 | 40 | 40 | 20 | 70 | 0 | 80 | 100 | 0 | 30 | 0 | 90 | 90 | 0 | 30 | Plant response rating, Foxtail, Giant (giant foxtail [1]; [18]): 20; Plant response rating, Corn (corn [3]; [18]): 0; Plant response rating, Barnyardgrass (barnyardgrass [4]; [18]): 0; Plant response rating, Wheat (wheat [7]; [18]): 0; Plant response rating, Velvetleaf (velvetleaf [10]; [18]): 0; Plant response rating, Pigweed (pigweed [11]; [18]): 30; Plant response rating, Crabgrass, Large (large (Lg) crabgrass [12]; [18]): 20; Plant response rating, Morningglory (morningglory [14]; [18]): 0; Morningglory plant response rating (morningglory [14]; [19]): 0; Plant response rating, Ducksalad (Heteranthera limosa): 60; Plant response rating, Sedge, Umbrella (sedge, umbrella): 75; Plant response rating, Wheat (wheat [15]; [18]): 0; Plant response rating, Wheat (wheat [15]; [20]): 20; Plant response rating, Foxtail, Giant (giant foxtail [16]; [18]): 0; Plant response rating, Foxtail, Giant (giant foxtail [16]; [20]): 60; Plant response rating, Barnyardgrass (barnyardgrass [17]): 20
Clc1cnc(Oc2ccccc2-n2ccc(Br)n2)nc1 [Compound 21] | 100 | 20 | 50 | 0 | 30 | 15 | 40 | 80 | 50 | 80 | 0 | 90 | 100 | 0 | 40 | 20 | 100 | 100 | 0 | 30 | Plant response rating, Foxtail, Giant (giant foxtail [1]; [18]): 70; Plant response rating, Corn (corn [3]; [18]): 0; Plant response rating, Barnyardgrass (barnyardgrass [4]; [18]): 20; Plant response rating, Wheat (wheat [7]; [18]): 0; Plant response rating, Velvetleaf (velvetleaf [10]; [18]): 0; Plant response rating, Pigweed (pigweed [11]; [18]): 90; Plant response rating, Crabgrass, Large (large (Lg) crabgrass [12]; [18]): 90; Plant response rating, Morningglory (morningglory [14]; [18]): 0; Morningglory plant response rating (morningglory [14]; [19]): 0; Plant response rating, Ducksalad (Heteranthera limosa): 40; Plant response rating, Sedge, Umbrella (sedge, umbrella): 70; Plant response rating, Wheat (wheat [15]; [18]): 0; Plant response rating, Wheat (wheat [15]; [20]): 20; Plant response rating, Foxtail, Giant (giant foxtail [16]; [18]): 30; Plant response rating, Foxtail, Giant (giant foxtail [16]; [20]): 90; Plant response rating, Barnyardgrass (barnyardgrass [17]): 25
